Data published in US20200339691A1, “PROTEINACEOUS MOLECULES AND USES THEREFOR” (priority 2018, published 2020).
Where a SMILES comes first, the peptide text is derived from it. The star is where a group is joined. Myristoyl = CCCCCCCCCCCCCC(=O)*

Key:
[1] = test system: CD44^hiCD24^lo CSCs in MDA-MB-231 cells; assay: FACS analysis of CD44^hiCD24^lo cancer stem cells in MDA-MB-231 cells treated with P1 analogues; format: cell-based, human; settings: 50 μM peptide, 48 hours; for CD44^hiCD24^lo CSCs (%) / COI, Live Single CD44^hiCD24^lo CSCs (Cell Count): n = 1; for Average Inhibition of CSCs (%) / CD44^hiCD24^lo CSCs (%) Repeat 1 / CD44^hiCD24^lo CSCs (%) Repeat 2 / CD44^hiCD24^lo CSCs (%) Repeat 3: n = 3
Procedure: Analogues of P1 (Table 6) were designed and synthesized in accordance with the procedure of Example 5. The ability of these analogues to inhibit cancer stem cells was determined using FACS analysis on MDA-MB-231 cells, which constitutively contain approximately 90% CD44^hiCD24^lo cancer stem cells, treated with the peptides.
(§1) Non-adherent cells were removed during the washing steps.

MDA-MB-231 cells = format: cell-based, human; settings: 50 μM peptide, 48 hours, n = 1
From the text: as §1

MCF7 cells = settings: MCF7 cells, 50 μM peptide, 48 hours
Procedure: P1 Analogues were synthesized in accordance with the procedure of Example 5. 4×10^4 MDA-MB-231 cells or 1×10^4 induced or non-induced MCF7 cells were seeded in a 12 well plate with 1 mL complete media overnight. Induced MCF7 cells were prepared by stimulating cells with PMA/TGF-β and incubating for 12 hours. Cells were treated with 50 μM test peptide (dissolved in water) for 48 hours. Cells were then washed twice with 1 mL PBS and harvested by trypsinisation. Non-adherent cells were removed during the washing steps. Adherent cells were collected, and were subsequently stained with anti-human CD44, CD24 and Hoechst 33342 antibodies on ice for 30 mins. FACS was performed on BD FACS LSRII to measure the percentage of CD44^hiCD24^lo CSCs by dividing CD44^hiCD24^lo events by total live cell counts (Hoechst negative population) (as described in Fillmore and Kuperwasser (2007) Breast Cancer Res, 9: 303). The percentage of viable cells was calculated by dividing total live cell events by total single cells as described previously (Siemann and Keng (1986), Cancer Res, 46: 3556-3559).

[2] = test system: PD-L1 acetylated at lysine 263; assay: Immunofluorescence (confocal) of acetylated PD-L1 in MDA-MB-231 cells, Example 6; format: cell-based, human; settings: 50 μM, 72 hours
Procedure: Confocal laser scanning microscopy was employed to investigate the effect of P1, P2 and P3 (synthesized in accordance with Example 5) on the nuclear expression of PD-L1 and acetylated PD-L1 (PDL1-Ac) (FIG. 9).
1×10^4 MDA-MB-231 cells were seeded onto coverslips in 12 well plates with DMEM media overnight. Cells were treated with 50 μM P1, P2, P3 or P4 or vehicle (water) for 72 hours. Treated cells were fixed with 3.7% formaldehyde, and then permeabilised by incubating with 1% Triton X-100 for 20 min. Cells were then probed with a rabbit anti-PD-L1 antibody (Santa Cruz Biotechnology) or rabbit anti-acetylated PD-L1 (generated as described above) and visualized with a donkey anti-rabbit AF 488. Cover slips were mounted on glass microscope slides with ProLong Diamond Antifade reagent (Life Technologies). Protein targets were localized using confocal laser scanning microscopy. Single 0.5 μm sections were obtained using a Leica DMI8 microscope using 100× oil immersion lens running LAX software. The final image was obtained by averaging four sequential images of the same section. Digital images were analyzed using ImageJ software as described above.

[3] = test system: cell surface vimentin (CSV); assay: Immunofluorescence of CSV in MDA-MB-231 cells, Example 9; format: cell-based, human; settings: 50 μM, 72 hours
Procedure: (§2) 1×10^4 MDA-MB-231 cells were seeded onto coverslips in 12 well plates with DMEM media. Cells were treated with 50 μM P1, P2, P3 or P4 (synthesized in accordance with Example 5) or vehicle (water) for 72 hours. Cells were fixed with 3.7% formaldehyde and permeabilized with 2% Triton-X-100, then probed with primary mouse antibodies to CSV, DMNT1, H3K9me3 or 5-methylcytosine; primary goat antibodies to SNAI1, SETDB1 or ABCB5; or primary rabbit antibodies to PD-L1, EGFR, EHMT2; followed by the corresponding secondary antibody conjugated to anti-mouse Alexa-Fluor 568, anti-goat Alexa-Fluor 633 or anti-rabbit Alexa-Fluor 488. Confocal laser scanning microscopy was used to measure the TFI, TNFI and TCFI as described above. At least 20 individual cells were analyzed per sample.

EGFR = assay: Immunofluorescence of EGFR in MDA-MB-231 cells; format: cell-based, human; settings: 50 μM, 72 hours
Procedure: as §2

SNAI1 = assay: Immunofluorescence of SNAI1 in MDA-MB-231 cells; format: cell-based, human; settings: 50 μM, 72 hours
Procedure: as §2

EHTM2 = assay: Immunofluorescence of EHTM2 in MDA-MB-231 cells; format: cell-based, human; settings: 50 μM, 72 hours
Procedure: (§3) Cells were treated with 50 μM P1, P2, P3 or P4 (synthesized in accordance with Example 5) or vehicle (water) for 72 hours. […] Confocal laser scanning microscopy was used to measure the […] and TCFI as described above. At least 20 individual cells were analyzed per sample.

DMNTI = assay: Immunofluorescence of DMNTI in MDA-MB-231 cells; format: cell-based, human; settings: 50 μM, 72 hours
Procedure: as §3

SETDB1 = assay: Immunofluorescence of SETDB1 in MDA-MB-231 cells; format: cell-based, human; settings: 50 μM, 72 hours
Procedure: as §3

PD-L2 = assay: Immunofluorescence of PD-L2 in MDA-MB-231 cells; format: cell-based, human; settings: 50 μM, 72 hours, relative to the control
Procedure: (§4) 1×10^4 MDA-MB-231 cells were treated with 50 μM P1, P2, P3 (synthesized in accordance with Example 5) or vehicle (water) for 72 hours. Cells were fixed with 3.7% formaldehyde and permeabilized with 2% Triton-X-100, then probed with a primary rabbit antibody to PD-L2, primary goat antibody to PD-L1 and primary mouse antibody to CSV, followed by the corresponding secondary antibody conjugated to anti-mouse Alexa-Fluor 568, anti-goat Alexa-Fluor 633 or anti-rabbit Alexa-Fluor 488. Confocal laser scanning microscopy was used to measure the TNFI and TCFI as described above. At least 20 individual cells were analyzed per sample.

PD-L1 = assay: Immunofluorescence of PD-L1 in MDA-MB-231 cells, Example 14; format: cell-based, human; settings: 50 μM, 72 hours
Procedure: as §4

[4] = test system: cell surface vimentin (CSV); assay: Immunofluorescence of CSV in MDA-MB-231 cells, Example 14; format: cell-based, human; settings: 50 μM, 72 hours
Procedure: as §4
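Wherever COI, Live Single Cells (Cell Count) is given: live means Hoechst-negative events among single cells.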

Row | SMILES | Inhibition of CSCs (%) Repeat 1 [1] [%] | Inhibition of CSCs (%) Repeat 2 [1] [%] | Inhibition of CSCs (%) Repeat 3 [1] [%] | CD44^hiCD24^lo CSCs (%) [1] [%] | COI, Live Single CD44^hiCD24^lo CSCs (Cell Count) [1] | Average Inhibition of CSCs (%) [1] [%] | CD44^hiCD24^lo CSCs (%) Repeat 1 [1] [%] | CD44^hiCD24^lo CSCs (%) Repeat 2 [1] [%] | CD44^hiCD24^lo CSCs (%) Repeat 3 [1] [%] | COI (Cell Count) (MDA-MB-231 cells) | COI, Live Single Cells (Cell Count) (MDA-MB-231 cells) | COI, Single (Cell Count) (MDA-MB-231 cells) | Total Cell Count (MDA-MB-231 cells) | Viable Cells (%) (MDA-MB-231 cells) | % Viable Cells (MCF7 cells) [%] | COI Count (MCF7 cells) | COI/Single Cell Count (MCF7 cells) | COI/Single Cells/Live Count (MCF7 cells) | Total Count (MCF7 cells) | Fn/c of acetylated PD-L1 [2] | further results
1 | CCCCCCCCCCCCCC(=O)N[C@@H](CC(C)C)C(=O)N[C@H](C(=O)N[C@@H](Cc1ccccc1)C(=O)N[C@H](C(=O)N[C@@H](Cc1ccccc1)C(=O)N[C@@H](CCCNC(=N)N)C(=O)N[C@@H](CC(C)C)C(=O)N[C@@H](CCCNC(=N)N)C(=O)N[C@@H](CCCCN)C(=O)NCC(=O)N[C@@H](CCCNC(=N)N)C(=O)N[C@@H](CCSC)C(=O)N[C@@H](CCSC)C(=O)N[C@@H](CC(=O)O)C(=O)N[C@H](C(=O)N[C@@H](CCCCN)C(=O)N[C@@H](CCCCN)C(N)=O)C(C)C)[C@@H](C)CC)[C@@H](C)O [Peptide P1, Myristoyl-LTFIFRLRKGRMMDVKK-NH2] (Myristoyl-LTFIFRLRKGRMMDVKK-NH2) | 93.33 | 89.97 | 90.28 | 15.77 | 220 | 91.19 | 5.98 | 9.00 | 8.72 | 2038 | 1395 | 1523 | 4339 | 91.60 | 95.65 | 6567 | 5585 | 5342 | 10000 | significantly reduced | total nuclear fluorescence intensity (TNFI) of acetylated PD-L1 [2]: significantly reduced; expression of CSV [3]: uniformly inhibited; expression of EGFR (EGFR): uniformly inhibited; expression of SNAI1 (SNAI1): uniformly inhibited; expression / localization of EHTM2 (EHTM2): significantly abrogated; expression / nuclear localization of DMNTI (DMNTI): significantly abrogated; expression / nuclear localization of SETDB1 (SETDB1): significantly abrogated; PD-L2 nuclear localization (PD-L2): significantly inhibited; nuclear localization of PD-L1 (PD-L1): significantly inhibited; CSV expression [4]: significantly inhibited
2 | CCCCCCCCCCCCCC(=O)N[C@@H](CC(C)C)C(=O)N[C@H](C(=O)N[C@@H](Cc1ccccc1)C(=O)N[C@H](C(=O)N[C@@H](Cc1ccccc1)C(=O)N[C@@H](CCCNC(=N)N)C(=O)N[C@@H](CC(C)C)C(=O)N[C@@H](CCCNC(=N)N)C(=O)N[C@@H](CCCCNC(C)=O)C(=O)NCC(=O)N[C@@H](CCCNC(=N)N)C(=O)N[C@@H](CCSC)C(=O)N[C@@H](CCSC)C(=O)N[C@@H](CC(=O)O)C(=O)N[C@H](C(=O)N[C@@H](CCCCN)C(=O)N[C@@H](CCCCN)C(N)=O)C(C)C)[C@@H](C)CC)[C@@H](C)O [Peptide P3, Myristoyl-LTFIFRLRK(Ac)GRMMDVKK-NH2] (Myristoyl-LTFIFRLRK(Ac)GRMMDVKK-NH2) | 92.77 | 91.10 | 87.85 | 8.04 | 410 | 90.57 | 6.48 | 7.99 | 10.90 | 6874 | 5099 | 5237 | 20311 | 97.36 | 98.47 | 6007 | 5039 | 4962 | 10000 | significantly reduced | total nuclear fluorescence intensity (TNFI) of acetylated PD-L1 [2]: significantly reduced; expression of CSV [3]: uniformly inhibited; expression of EGFR (EGFR): uniformly inhibited; expression of SNAI1 (SNAI1): uniformly inhibited; expression / localization of EHTM2 (EHTM2): significantly abrogated; expression / nuclear localization of DMNTI (DMNTI): significantly abrogated; expression / nuclear localization of SETDB1 (SETDB1): significantly abrogated; PD-L2 nuclear localization (PD-L2): significantly inhibited; nuclear localization of PD-L1 (PD-L1): significantly inhibited; CSV expression [4]: significantly inhibited
3 | CCCCCCCCCCCCCC(=O)N[C@@H](CC(C)C)C(=O)N[C@H](C(=O)N[C@@H](Cc1ccccc1)C(=O)N[C@H](C(=O)N[C@@H](Cc1ccccc1)C(=O)N[C@@H](CCCNC(=N)N)C(=O)N[C@@H](CC(C)C)C(=O)N[C@@H](CCCNC(=N)N)C(=O)N[C@@H](CCC(N)=O)C(=O)NCC(=O)N[C@@H](CCCNC(=N)N)C(=O)N[C@@H](CCSC)C(=O)N[C@@H](CCSC)C(=O)N[C@@H](CC(=O)O)C(=O)N[C@H](C(=O)N[C@@H](CCCCN)C(=O)N[C@@H](CCCCN)C(N)=O)C(C)C)[C@@H](C)CC)[C@@H](C)O [Peptide P2, Myristoyl-LTFIFRLRQGRMMDVKK-NH2] (Myristoyl-LTFIFRLRQGRMMDVKK-NH2) | 79.10 | 82.65 | 85.94 | 13.99 | 616 | 82.56 | 18.73 | 15.56 | 12.62 | 6317 | 4402 | 4580 | 12706 | 96.11 | 97.19 | 5603 | 4482 | 4356 | 10000 | significantly reduced | total nuclear fluorescence intensity (TNFI) of acetylated PD-L1 [2]: significantly reduced; expression of CSV [3]: uniformly inhibited; expression of EGFR (EGFR): uniformly inhibited; expression of SNAI1 (SNAI1): uniformly inhibited; expression / localization of EHTM2 (EHTM2): significantly abrogated; expression / nuclear localization of DMNTI (DMNTI): significantly abrogated; expression / nuclear localization of SETDB1 (SETDB1): significantly abrogated; PD-L2 nuclear localization (PD-L2): significantly inhibited; nuclear localization of PD-L1 (PD-L1): significantly inhibited; CSV expression [4]: significantly inhibited
